One assay addresses T1, CDK9/CycT1 (Homo sapiens, UniProt P50750).
T1 construct: Recombinant full-length His-tagged human CDK9 and CycT1; His; purchased Invitrogen PV4131; host or cells: insect cells
In words: CDK9/CycT1 kinase assay (TR-FRET, Method 1a). In kind it is biochemical. The conditions noted are these: for IC50: Method 1a, 10 μM ATP; for Selectivity CDK9 over CDK2: IC50 (CDK2)/IC50 (CDK9): Methods 1a and 2a, minimal values where CDK9 IC50 is at the assay limit. The source says: 1a. CDK9/CycT1 Kinase Assay:
CDK9/CycT1-inhibitory activity of compounds of the present invention was quantified employing the CDK9/CycT1 TR-FRET assay as described in the following paragraphs:
(§1) Recombinant full-length His-tagged human CDK9 and CycT1, expressed in insect cells and purified by Ni-NTA affinity chromatography, were purchased from Invitrogen (Cat. No PV4131). As substrate for the kinase reaction biotinylated peptide biotin-Ttds-YISPLKSPYKISEG (C-terminus in amid form) was used which can be purchased e.g. from the company JERINI Peptide Technologies (Berlin, Germany). For the assay 50 nl of a 100 fold concentrated solution of the test compound in DMSO was pipetted into a black low volume 384 well microtiter plate (Greiner Bio-One, Frickenhausen, Germany), 2 μl of a solution of CDK9/CycT1 in aqueous assay buffer [50 mM Tris/HCl pH 8.0, 10 mM MgCl2, 1.0 mM dithiothreitol, 0.1 mM sodium ortho-vanadate, 0.01% (v/v) Nonidet-P40 (Sigma)] were added and the mixture was incubated for 15 min at 22° C. to allow pre-binding of the test compounds to the enzyme before the start of the kinase reaction. […] The concentration of CDK9/CycT1 was adjusted depending of the activity of the enzyme lot and was chosen appropriate to have the assay in the linear range, typical concentrations were in the range of 1 μg/mL. The reaction was stopped by the addition of 5 μl of a solution of TR-FRET detection reagents (0.2 μM streptavidine-XL665 [Cisbio Bioassays, Codolet, France] and 1 nM anti-RB(pSer807/pSer811)-antibody from BD Pharmingen [#558389] and 1.2 nM LANCE EU-W1024 labeled anti-mouse IgG antibody [Perkin-Elmer, product no. AD0077]) in an aqueous EDTA-solution (100 mM EDTA, 0.2% (w/v) bovine serum albumin in 100 mM HEPES pH 7.5).
(§2) The resulting mixture was incubated 1 h at 22° C. to allow the formation of complex between the phosphorylated biotinylated peptide and the detection reagents. Subsequently the amount of phosphorylated substrate was evaluated by measurement of the resonance energy transfer from the Eu-chelate to the streptavidine-XL. Therefore, the fluorescence emissions at 620 nm and 665 nm after excitation at 350 nm was measured in a HTRF reader, e.g. a Rubystar (BMG Labtechnologies, Offenburg, Germany) or a Viewlux (Perkin-Elmer). The ratio of the emissions at 665 nm and at […] was taken as the measure for the amount of phosphorylated substrate. The data were normalised (enzyme reaction without inhibitor=0% inhibition, all other assay components but no enzyme=100% inhibition).
(In general: Time-resolved FRET reads energy transfer from a long-lived donor to a nearby acceptor.)

A further assay deals with T2, CDK2/CycE (Homo sapiens, UniProt P24941).
T2 construct: GST; purchased ProQinase GmbH (Freiburg, Germany); host or cells: insect cells (Sf9)
In words: CDK2/CycE kinase assay (TR-FRET, Method 2a). The format is biochemical. The conditions noted are these: 10 μM ATP.
Description: 2a. CDK2/CycE Kinase Assay:
CDK2/CycE-inhibitory activity of compounds of the present invention was quantified employing the CDK2/CycE TR-FRET assay as described in the following paragraphs:
Recombinant fusion proteins of GST and human CDK2 and of GST and human CycE, expressed in insect cells (Sf9) and purified by Glutathion-Sepharose affinity chromatography, were purchased from ProQinase GmbH (Freiburg, Germany). As substrate for the kinase reaction biotinylated peptide biotin-Ttds-YISPLKSPYKISEG (C-terminus in amid form) was used which can be purchased e.g. from the company JERINI Peptide Technologies (Berlin, Germany).
as §1, with “For” for “Recombinant full-length His-tagged human CDK9 and CycT1, expressed in insect cells and purified by Ni-NTA affinity chromatography, were purchased from Invitrogen (Cat. No PV4131). As substrate for the kinase reaction biotinylated peptide biotin-Ttds-YISPLKSPYKISEG (C-terminus in amid form) was used which can be purchased e.g. from the company JERINI Peptide Technologies (Berlin, Germany). For”, “CDK2/CycE” for “CDK9/CycT1”, “130 ng/mL.” for “1 μg/mL.”
as §2, with “TR-FRET” for “HTRF”

T1 sequence (P50750 whole entry): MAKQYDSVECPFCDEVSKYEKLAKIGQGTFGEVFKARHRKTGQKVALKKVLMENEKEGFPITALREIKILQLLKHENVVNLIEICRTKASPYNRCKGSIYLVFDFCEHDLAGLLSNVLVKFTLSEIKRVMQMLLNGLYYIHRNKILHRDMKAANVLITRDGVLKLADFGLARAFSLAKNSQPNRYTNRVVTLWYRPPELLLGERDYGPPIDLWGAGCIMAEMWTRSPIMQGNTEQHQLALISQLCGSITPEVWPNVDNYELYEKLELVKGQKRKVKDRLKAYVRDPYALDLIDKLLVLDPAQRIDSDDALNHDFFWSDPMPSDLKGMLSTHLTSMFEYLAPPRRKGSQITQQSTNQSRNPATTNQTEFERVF
T1 sequence (O60563 whole entry partner): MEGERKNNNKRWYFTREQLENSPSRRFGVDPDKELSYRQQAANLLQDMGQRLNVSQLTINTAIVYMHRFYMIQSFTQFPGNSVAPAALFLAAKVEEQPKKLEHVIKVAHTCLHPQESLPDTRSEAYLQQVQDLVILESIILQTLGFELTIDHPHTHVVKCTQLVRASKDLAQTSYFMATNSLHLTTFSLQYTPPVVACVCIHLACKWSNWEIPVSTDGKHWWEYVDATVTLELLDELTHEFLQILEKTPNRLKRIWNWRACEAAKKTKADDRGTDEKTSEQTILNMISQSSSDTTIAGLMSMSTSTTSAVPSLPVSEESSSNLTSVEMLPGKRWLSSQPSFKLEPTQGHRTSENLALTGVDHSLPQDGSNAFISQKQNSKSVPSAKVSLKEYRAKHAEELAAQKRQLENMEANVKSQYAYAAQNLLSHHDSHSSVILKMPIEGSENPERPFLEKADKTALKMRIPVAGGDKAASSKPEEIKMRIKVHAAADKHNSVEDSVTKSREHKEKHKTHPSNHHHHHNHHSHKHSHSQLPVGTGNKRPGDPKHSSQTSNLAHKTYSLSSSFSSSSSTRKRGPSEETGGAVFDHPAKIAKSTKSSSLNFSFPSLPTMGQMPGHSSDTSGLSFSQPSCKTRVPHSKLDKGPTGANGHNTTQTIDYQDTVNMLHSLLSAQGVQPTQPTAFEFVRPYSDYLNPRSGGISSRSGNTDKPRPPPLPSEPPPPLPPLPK

On to `CS(=N)(=O)Cc1cc2cc(c1)OCCCCOc1cc(F)ccc1-c1nc(ncc1F)N2` (racemic) [Example 1, (rac)-16,20-Difluoro-9-[(S-methylsulfonimidoyl)methyl]-2,3,4,5-tetrahydro-12H-13,17-(azeno)-11,7-(metheno)-1,6,12,14-benzodioxadiazacyclononadecine], for which, at CDK9/CycT1, 2.9 nM corresponded to half-maximal inhibition (IC50) and the “Selectivity CDK9 over CDK2: IC50 (CDK2)/IC50 (CDK9)” value (“Selectivity CDK9 over CDK2: IC50” for short) was 7.4. Inhibition on CDK2/CycE was half-maximal at 21.2 nM (IC50).

For `C[S+]([O-])Cc1cc2nc(c1)OCCCOc1cc(F)ccc1-c1cc(ncc1F)N2` (racemic) [Example 4, (rac)-15,19-Difluoro-8-[(methylsulfinyl)methyl]-3,4-dihydro-2H,11H-10,6-(azeno)-12,16-(metheno)-1,5,11,13-benzodioxadiazacyclooctadecine], the half-inhibitory concentration (IC50) (commonly the concentration needed to halve the response being measured) was found to be 2.8 nM at CDK9/CycT1 and 4.6 nM at CDK2/CycE. Further, the “Selectivity CDK9 over CDK2: IC50” value on CDK9/CycT1 was determined as 1.7.

In the case of `CS(=N)(=O)Cc1cc2nc(c1)OCCCOc1cc(F)ccc1-c1cc(ncc1F)N2` (racemic) [Example 5, (rac)-15,19-Difluoro-8-[(S-methylsulfonimidoyl)methyl]-3,4-dihydro-2H,11H-10,6-(azeno)-12,16-(metheno)-1,5,11,13-benzodioxadiazacyclooctadecine], at CDK9/CycT1, half-maximal inhibition (IC50) required 3 nM and the “Selectivity CDK9 over CDK2: IC50” value is 0.65. At CDK2/CycE, this molecule yielded a concentration for half-maximal inhibition (IC50) of 2 nM.

Regarding `C[S+]([O-])Cc1cc2nc(c1)OCCOc1cc(F)ccc1-c1cc(ncc1F)N2` (racemic) [Example 10, (rac)-14,18-difluoro-7-[(methylsulfinyl)methyl]-2,3-dihydro-10H-9,5-(azeno)-11,15-(metheno)-1,4,10,12-benzodioxadiazacycloheptadecine], the IC50 was 7.3 nM on CDK9/CycT1 and 415 nM against CDK2/CycE. Also, on CDK9/CycT1, the “Selectivity CDK9 over CDK2: IC50” value is given as 56.5.

As to `CS(=N)(=O)Cc1cc2nc(c1)OCCOc1cc(F)ccc1-c1cc(ncc1F)N2` (racemic) [Example 11, (rac)-14,18-difluoro-7-[(S-methylsulfonimidoyl)methyl]-2,3-dihydro-10H-9,5-(azeno)-11,15-(metheno)-1,4,10,12-benzodioxadiazacycloheptadecine], on CDK9/CycT1, half-maximal inhibition (IC50) was put at 2.5 nM and the “Selectivity CDK9 over CDK2: IC50” value was 72.6. Besides, the IC50 against CDK2/CycE worked out at 180 nM.

In the case of `C[S+]([O-])Cc1cc2nc(c1)OCCCCOc1cc(F)ccc1-c1cc(ncc1F)N2` (racemic) [Example 13, (rac)-16,20-difluoro-9-[(methylsulfinyl)methyl]-2,3,4,5-tetrahydro-12H-11,7-(azeno)-13,17-(metheno)-1,6,12,14-benzodioxadiazacyclononadecine], the IC50 against CDK9/CycT1 was 4 nM; at CDK2/CycE, 16.7 nM. In addition, the “Selectivity CDK9 over CDK2: IC50” value at CDK9/CycT1 was 4.2.

With `CS(=N)(=O)Cc1cc2nc(c1)OCCCCOc1cc(F)ccc1-c1cc(ncc1F)N2` (racemic) [Example 14, (rac)-16,20-difluoro-9-[(S-methylsulfonimidoyl)methyl]-2,3,4,5-tetrahydro-12H-11,7-(azeno)-13,17-(metheno)-1,6,12,14-benzodioxadiazacyclononadecine], at CDK9/CycT1, the IC50 was determined as 4.8 nM and the “Selectivity CDK9 over CDK2: IC50” value is given as 4.1. In addition, the IC50 against CDK2/CycE worked out at 19.8 nM.

Consider `CS(=N)(=O)Cc1cc2cc(c1)OCCCOc1cc(F)ccc1-c1nc(ncc1F)N2` (racemic) [Example 15, (rac)-15,19-difluoro-8-[(S-methylsulfonimidoyl)methyl]-3,4-dihydro-2H,11H-12,16-(azeno)-10,6-(metheno)-1,5,11,13-benzodioxadiazacyclooctadecine], for which, on CDK9/CycT1, it took 3.8 nM to reach half-maximal inhibition (IC50) and the “Selectivity CDK9 over CDK2: IC50” value is on record as 6.8. For the same molecule, the IC50 at CDK2/CycE is 26 nM.

With `CS(=O)(Cc1cc2cc(c1)OCCCOc1cc(F)ccc1-c1nc(ncc1F)N2)=NC(=O)C(F)(F)F` (racemic) [Example 16, (rac)-N-[{[15,19-difluoro-3,4-dihydro-2H,11H-12,16-(azeno)-10,6-(metheno)-1,5,11,13-benzodioxadiazacyclooctadecin-8-yl]methyl}(methyl)oxido-λ^6-sulfanylidene]-2,2,2-trifluoroacetamide], the IC50 on CDK9/CycT1 is 3.9 nM; against CDK2/CycE it was 58.2 nM. Moreover, on CDK9/CycT1, the “Selectivity CDK9 over CDK2: IC50” value is listed as 14.8.

As for `CCNC(=O)N=S(C)(=O)Cc1cc2nc(c1)OCCCOc1cc(F)ccc1-c1cc(ncc1F)N2` (racemic) [Example 17, (rac)-1-[{[15,19-difluoro-3,4-dihydro-2H,11H-10,6-(azeno)-12,16-(metheno)-1,5,11,13-benzodioxadiazacyclooctadecin-8-yl]methyl}(methyl)oxido-λ^6-sulfanylidene]-3-ethylurea], on CDK9/CycT1, half-maximal inhibition (IC50) required 4.4 nM and the “Selectivity CDK9 over CDK2: IC50” value was 1.3. Also, at CDK2/CycE, the IC50 came to 5.6 nM.

Take `CC(=O)N=S(C)(=O)Cc1cc2nc(c1)OCCCOc1cc(F)ccc1-c1cc(ncc1F)N2` (racemic) [Example 18, (rac)-N-[{[15,19-difluoro-3,4-dihydro-2H,11H-10,6-(azeno)-12,16-(metheno)-1,5,11,13-benzodioxadiazacyclooctadecin-8-yl]methyl}(methyl)oxido-λ^6-sulfanylidene]acetamide]: at CDK9/CycT1, half-maximal inhibition (IC50) required 4.9 nM and the “Selectivity CDK9 over CDK2: IC50” value stood at 1.7. Besides, on CDK2/CycE, it took 8.2 nM to reach half-maximal inhibition (IC50).

For the molecule `CN=S(C)(=O)Cc1cc2nc(c1)OCCCOc1cc(F)ccc1-c1cc(ncc1F)N2` (racemic) [Example 19, (rac)-8-[(N,S-dimethylsulfonimidoyl)methyl]-15,19-difluoro-3,4-dihydro-2H,11H-10,6-(azeno)-12,16-(metheno)-1,5,11,13-benzodioxadiazacyclooctadecine], on CDK9/CycT1, the half-maximal inhibitory concentration (IC50) was 5.3 nM and the “Selectivity CDK9 over CDK2: IC50” value came out at 2.9. Moreover, the 50% inhibitory concentration (IC50) at CDK2/CycE stood at 15.4 nM.

As to `CCOC(=O)N=S(C)(=O)Cc1cc2nc(c1)OCCCOc1cc(F)ccc1-c1cc(ncc1F)N2` (racemic) [Example 20, (rac)-ethyl [{[15,19-difluoro-3,4-dihydro-2H,11H-10,6-(azeno)-12,16-(metheno)-1,5,11,13-benzodioxadiazacyclooctadecin-8-yl]methyl}(methyl)oxido-λ^6-sulfanylidene]carbamate], on CDK9/CycT1, the IC50 turned out to be 5.3 nM and the “Selectivity CDK9 over CDK2: IC50” value turned out to be 2.2. The IC50 at CDK2/CycE stood at 11.7 nM.

The record behind these values is patent US9963464B2, “Macrocyclic compounds” (Bayer Pharma Aktiengesellschaft, priority 2014, dated 2018).
